Reference: article PMC8621770, “New Compounds with Bioisosteric Replacement of Classic Choline Kinase Inhibitors Show Potent Antiplasmodial Activity” (Pharmaceutics, 2021)

Experiments:
PfCK = target: T1, PfCK (Plasmodium falciparum, UniProt Q8IM71); test: Spectrophotometric coupled enzymatic assay for PfCK activity (substrate choline); type: biochemical; conditions: read-out: PfCK Fractional Activity at 25 µM
T1 construct: A truncated form of PfCK (Δ79-440) featuring an N-terminal 6× His-tag; 6xHis (N); host or cells: Escherichia coli BL21 (DE3) Star
T1 sequence (Q8IM71 entry or part of it): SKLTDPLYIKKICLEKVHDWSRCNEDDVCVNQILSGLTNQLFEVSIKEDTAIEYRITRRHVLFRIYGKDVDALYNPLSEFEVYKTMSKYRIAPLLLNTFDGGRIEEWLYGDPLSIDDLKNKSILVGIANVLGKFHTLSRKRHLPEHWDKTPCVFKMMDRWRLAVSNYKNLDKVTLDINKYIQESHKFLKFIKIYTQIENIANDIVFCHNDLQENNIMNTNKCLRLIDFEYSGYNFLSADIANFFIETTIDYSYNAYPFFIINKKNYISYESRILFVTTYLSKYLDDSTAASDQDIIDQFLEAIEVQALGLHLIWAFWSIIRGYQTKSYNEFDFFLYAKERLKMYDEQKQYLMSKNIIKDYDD

P. falciparum strain 3D7 = test: Antimalarial activity, P. falciparum lactate dehydrogenase growth inhibition assay; type: cell-based, Plasmodium falciparum; conditions: Plasmodium falciparum, Erythrocyte; P. falciparum 3D7 in human erythrocytes, 72 h, LDH readout; read-out: IC50 a (In vitro IC50 values against P. falciparum)
[1] = Aggregation of compound solutions for the enzymatic assays; type: physicochemical; conditions: even at 5 mM concentration
Excerpt: As a result, it was difficult to measure their exact concentration, which is crucial for enzymatic assays.

In the case of `[Br-].c1ccc(-c2ccc(C[n+]3cnc(N4CCCC4)c4ccsc43)cc2)cc1` [Fa-M3, 1-([1,1’-biphenyl]-4-ylmethyl)-4-(pyrrolidin-1-yl)thieno[2,3-d]pyrimidin-1-ium bromide], the melting point is reported as 275 to 278 °C, the remaining activity at 25 µM (PfCK) is reported as 96.9 ± 18.7% and the IC50 (P. falciparum strain 3D7) is reported as 35.1 nM. The aggregation [1] was “severe aggregation”.
